Assays:
MOCS1-deficient mice [1] = assay: Water labyrinth learning test; format: in vivo
Experimental: FIG. 7: Ability to train precursor Z-treated MOCS1-deficient mice in a water labyrinth. The values represented a cross section of six wildtype- (wt, black bars) and six precursor Z treated MOCS1-deficient mice (MOCS1 ^−/−, white bars). […] C, time (of a total of 120 seconds), spent in the correct sector (without platform), which were learned in passes A and B.
Avoidance of light was tested in the light/dark box, in which the animals were placed into the light area and the time was determined until the animals sought out the darker area. […] The results were compared with wild-type controls. The mice were sequentially introduced into all four sectors and the time was measured until the animals found and climbed onto the platform (FIG. 7). […] In a second test series, the average swim time was reduced to 20-25% of the first test both in the “knockout” mice as well as with the control animals. In a third test series, the platform was removed and the time was measured that the mice spent in the “correct” sector—the sector that previously contained the platform. Both groups spent approximately 50% of the time in the correct sector.

MOCS1-deficient mice [2] = assay: Cessation or delayed initiation of precursor Z treatment; format: in vivo
From the text: In order to test whether the treatment with precursor Z can be halted after a certain developmental stage, we stopped the injection of precursor Z in homozygouse mutants on days 1 (n=3), 12 (n=4), 26-28 (n=3) and 64-68 (n=2) after birth. A single injection of precursor Z after day one led to death after 15-18 days. […] At the age of 26-28 days, in which the previously described critical period falls, the cessation of administration of precursor Z led to death within 4-7 days. Cessation after 64-68 days led to reduced exploration of the environment after 7 days and to death after 9-10 days. In order to successfully correct the phenotype, the administration with precursor Z had to be initiated within 5 days following birth.

Total-MPT inclusive Moco = assay: MPT content in liver after last injection; format: in vivo, mice
Experimental: (§1) FIG. 6: Restoration of the MPT-biosynthesis in vitro and in vivo. (a) In vitro restoration of MOCS1-deficient liver extracts with precursor Z. Protein raw extract of a five day old MOCS1^−/− were incubated (1 h) with the indicated amounts of purified precursor Z per mg protein. Restoration of MPT-synthesis was measured by means of nit-1 reconstitution assay. (b-d) Biochemical analysis of precursor Z treated MOCS1-deficient animals. The mice were twice weekly injected with increasing amounts of precursor Z, beginning with 2 μg after birth and up to 8 μg after weaning. Between the days 25-55 after birth the treatment was stopped. On day 0 (4 hours after the last injection), 1, 4 and 7 respectively, two mice were sacrificed. Two liver samples of each animal were removed and separately further processed. Each value in the figure was thus determined four times. […]
(§2) In homozygote MOCS1^−/−-animals, in which precursor Z was injected regularly and which appeared normal with regard to weight, appearance and behavior, the treatment was halted and the animals were sacrificed sequentially at days 0, 1, 4 and 7 after the last injection in order to determine the MPT-content and the Mo-enzyme activity in the liver (FIG. 6b-d). Due to the rapid conversion of the administered precursor Z to MPT, the highest MPT-value was measured on the day of the injection (16±1% of the wildtype; FIG. 6b). […]

sulphite oxidase = assay: Sulphite oxidase activity in liver after last injection; format: in vivo, mice
Experimental: as §1, §2

xanthine dehydrogenase = assay: Xanthine dehydrogenase activity in liver after last injection; format: in vivo, mice
Experimental: as §1, §2

MOCS1-deficient mice [3] = assay: Morphologic examination of tissues of treated knockout mice; format: in vivo
Experimental: FIG. 8: Morphologic comparison of kidneys (a, b) and brain sections (c,d) of wildtype- (a,c) and precursor Z-treated MOCS1-deficient mice, (b,d). Treatment was with 2-4 μg each third day. (a) Regular kidneys with normal glomerulus (arrow), characteristic developed tubuli and thin (narrow) interstices (200×). […] Proximal tubuli were extended (28+/−19%). […] The glomerulus is normal (arrow). (c,d) Corresponding coronal brain sections (Cx, Cortex; Hi, Hippocampus; Str, Striatum; Th, Thalamus; Hy, Hypothalamus) of wildtype-(c) and precursor Z-treated MOCS1^−/− mice (d).
Tissue from heart, skeletal muscle, lung, pancreas, thyroid, spleen and liver (data not shown) as well as brain (FIG. 8c-d) were examined.

MOCS1-deficient mice [4] = assay: Xanthin and uric acid in urine of treated knockout mice; format: in vivo; settings: data not shown
[5] = low pH-values; cited from earlier work

Nc1nc2c(c(=O)[nH]1)N[C@@H]1[C@H](N2)O[C@@H]2COP(=O)(O)O[C@@H]2C1(O)O [precursor Z]
water labyrinth: average swim time as % of the first test (MOCS1-deficient mice [1]; second test series): 20-25% | water labyrinth: time spent in the correct sector (MOCS1-deficient mice [1]; third test series, platform removed): approximately 50% | death after cessation (MOCS1-deficient mice [2]; cessation after 64-68 days): 9 to 10 days | onset of reduced exploration of the environment after cessation (MOCS1-deficient mice [2]; cessation after 64-68 days): 7 days | death after cessation (MOCS1-deficient mice [2]; cessation at the age of 26-28 days): 4 to 7 days | death after the last injection (MOCS1-deficient mice [2]; cessation on day 12): 7 to 9 days | onset of limited exploration of the environment after the last injection (MOCS1-deficient mice [2]; cessation on day 12): 6 days | improvement of the phenotype or the life expectancy (MOCS1-deficient mice [2]; initiation of treatment after 7 or 10 days): no significant improvement | time after birth within which administration had to be initiated to correct the phenotype (MOCS1-deficient mice [2]; mouse, in vivo): ≤ 5 days | time of death (MOCS1-deficient mice [2]; single injection, treatment stopped on day 1): 15 to 18 days | MPT-value in liver (Total-MPT inclusive Moco; day of the injection (day 0, 4 hours after the last injection)): 16±1 % of the wildtype | MPT-content in liver (Total-MPT inclusive Moco; within the following four days after last injection): less than 4 % of the wildtype value | sulphite oxidase activity, course (sulphite oxidase; day 0 to day 1 after the last injection): rise | sulphite oxidase activity (% of wildtype) versus reconstituted MPT-content (sulphite oxidase; liver): higher than the reconstituted MPT-content | xanthin dehydrogenase activity, course (xanthine dehydrogenase; after day 1): rapidly decreased | xanthin-dehydrogenase activity (% of wildtype) versus reconstituted MPT-content (xanthine dehydrogenase; liver): higher than the reconstituted MPT-content | enlargement of the matrix of the interstices (MOCS1-deficient mice [3]; 2-4 μg each third day): 13+/−13% | extension of proximal tubuli (MOCS1-deficient mice [3]; 2-4 μg each third day): 28+/−19% | kidney stones (MOCS1-deficient mice [3]; 2-4 μg each third day): numerous stones in the tubuli | kidney morphology (MOCS1-deficient mice [3]; beginning day 20 after birth): bilateral abnormal kidneys | morphology besides kidney (MOCS1-deficient mice [3]; heart, skeletal muscle, lung, pancreas, thyroid, spleen, liver, brain): no further morphologic abnormality | uric acid in the urine (MOCS1-deficient mice [4]): not measurable | xanthin in the urine (MOCS1-deficient mice [4]): very high | estimated half time [5]: several hours
